Series [1] can be described thus: Apigenin solubility in NaOH solutions. The series is classed as physicochemical. The settings on record: sodium hydroxide solution, aqueous buffer. The text has this:
A good solubility of polyphenols in the alkaline medium is very important in generating well hydrated polyphenols upon acidification. The regenerated hydrated products mix well in the formulations. Sodium hydroxide solution is an effective solubilizer at different concentrations for apigenin, a polyphenol flavonoid. This is exemplified in the table below— Apigenin Solubility in NaOH Solutions [table]

Series [2] concerns acute radiation dermatitis. The settings on record: 49 patients; prophylactic MMF with emollient cream vs emollient cream alone; cited from earlier work.
Series [3] can be described thus: SEM particle morphology of hydrated apigenin. The series is classed as physicochemical. The source says: Scanning Electron Microscopy (SEM) images of the hydrated apigenin, and unprocessed apigenin powder were collected to determine particle morphology details. […] The chemical composition as determined by FTIR and Raman Spectroscopy, could not detect any chemical differences in the unprocessed apigenin and the hydrated apigenin. […] The hydrated apigenin was composed of fibers with diameters of 30-500 nm (a range of being nano-fibers) with aspect ratios measuring greater than 20.

As to `O=c1cc(-c2ccc(O)cc2)oc2cc(O)cc(O)c12` [Apigenin], the solubility in series [1] (NaOH Molarity 0.75 moles/liter) is more than 150 mg/mL; in series [1] (NaOH Molarity 1.015 moles/liter), more than 200 mg/mL; in series [1] (NaOH Molarity 2.0 moles/liter), more than 300 mg/mL.
On to `C[C@@H]1C[C@H]2[C@@H]3CCC4=CC(=O)C=C[C@]4(C)[C@@]3(Cl)[C@@H](O)C[C@]2(C)[C@@]1(OC(=O)c1ccco1)C(=O)CCl` [MMF, mometasone furoate], for which, in series [2], the acute radiation dermatitis entry is reported as “significantly decreased acute radiation dermatitis”.
As to `O=c1cc(-c2ccc(O)cc2)oc2cc(O)cc(O)c12` [hydrated apigenin], in series [3], the “aspect ratios of fibers” value is listed as “greater than 20” and the fiber diameters was 30-500 nm.

By solubility is commonly meant the concentration that dissolves in the medium under given conditions. The low end stands for a poorly soluble substance, the high end for a readily soluble substance.

The record behind these values is US20210369667A1, “COMPOSITIONS AND METHODS FOR THE PREVENTION AND TREATMENT OF RADIATION DERMATITIS, ECZEMA, BURNS, WOUNDS AND CERTAIN CANCERS” (VIZURI HEALTH SCIENCES CONSUMER HEALTHCARE, INC., priority 2019, published 2021).
